Data taken from the supplement of paper PMC10307832.

Compound: COc1cc(Nc2ncc(F)c(Nc3ccc4c(n3)NC(=O)C(C)(C)O4)n2)cc(OC)c1OC [R406]
Assay: relative viability (nuclei count vs DMSO), 5 days (fraction); higher = more cells survive
Conditions: 0.08 µM
In short: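 Lung cancer cell lines in 1536-well plates were kept overnight at 37 °C, then pinned with five library-drug doses (not always all listed) spaced by √10 on vehicle-anchored plates. After 5 days without medium change, cells were fixed, permeabilised and Hoechst-stained in one step, imaged at 4×, and nuclei were counted with MetaXpress. Viability is treated-well nuclei divided by vehicle-well nuclei, taken as the median over plates. Plates passed only with control CV below 25% and at least one doubling.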

First: NCI-H1666
Second: NCI-H647
The relative viability of the first is higher: 1 for the first, 0.943 for the second.

Compared with LK-2, NCI-H2087 is higher in relative viability: 0.86 for the first, 1.05 for the second.

Compared with NCI-H358, NCI-H2170 is higher in relative viability: 0.935 for the first, 0.962 for the second.

First: H3255
Second: COR-L23
The relative viability of the first is lower: 0.943 for the first, 0.953 for the second.

Going from COR-L 105 to IA-LM, the relative viability rises from 0.911 to 1.07.

Compared with LOU-NH91, NCI-H1793 is lower in relative viability: 0.916 for the first, 0.731 for the second.

First: NCI-H2405
Second: HOP-62
The relative viability of the first is lower: 0.98 for the first, 0.998 for the second.

First: HCC-44
Second: A549
The relative viability of the first is higher: 0.979 for the first, 0.898 for the second.

Compared with SK-MES-1, LU99A is lower in relative viability: 0.989 for the first, 0.984 for the second.

Compared with BEN, HARA is higher in relative viability: 0.862 for the first, 0.975 for the second.

Compared with HCC-78, NCI-H322M is lower in relative viability: 0.953 for the first, 0.889 for the second.

Going from LCLC-97TM1 to NCI-H2009, the relative viability rises from 0.885 to 0.975.

Going from A-427 to NCI-H460, the relative viability falls from 0.974 to 0.965.

Compared with NCI-H727, NCI-H1734 is higher in relative viability: 0.817 for the first, 0.985 for the second.

First: NCI-H520
Second: NCI-H2347
The relative viability of the first is lower: 0.869 for the first, 1.06 for the second.

First: SW 1573
Second: NCI-H1395
The relative viability of the first is higher: 1.02 for the first, 1.01 for the second.

Going from 201T to NCI-H1915, the relative viability rises from 0.929 to 1.01.

Same assay, conditions: 0.253 µM

First: HCC-366
Second: NCI-H1666
The relative viability of the first is higher: 1.1 for the first, 1.02 for the second.

Compared with NCI-H647, LK-2 is higher in relative viability: 1.13 for the first, 1.22 for the second.

Going from NCI-H2087 to NCI-H358, the relative viability falls from 1.16 to 1.04.

First: NCI-H2170
Second: H3255
The relative viability of the first is lower: 0.972 for the first, 1.16 for the second.

Compared with COR-L23, COR-L 105 is lower in relative viability: 1.17 for the first, 1.05 for the second.

Going from IA-LM to LOU-NH91, the relative viability falls from 1.19 to 0.963.

Going from NCI-H1793 to NCI-H2405, the relative viability falls from 1.17 to 1.11.

Compared with HOP-62, HCC-44 is lower in relative viability: 1.16 for the first, 0.976 for the second.

Going from A549 to SK-MES-1, the relative viability rises from 1.02 to 1.05.

Going from LU99A to BEN, the relative viability rises from 0.983 to 1.24.

Going from HARA to HCC-78, the relative viability rises from 0.965 to 1.08.

Going from NCI-H322M to LCLC-97TM1, the relative viability rises from 0.922 to 1.18.

First: NCI-H2009
Second: A-427
The relative viability of the first is lower: 1.04 for the first, 1.23 for the second.

Compared with NCI-H460, NCI-H727 is lower in relative viability: 1.11 for the first, 0.888 for the second.

Going from NCI-H1734 to NCI-H520, the relative viability falls from 1.18 to 1.12.

Going from NCI-H2347 to SW 1573, the relative viability falls from 1.18 to 1.11.

First: NCI-H1395
Second: 201T
The relative viability of the first is higher: 1.05 for the first, 1.02 for the second.

In the case of NCI-H1915, the relative viability is reported as 1.15.

Same assay, conditions: 0.8 µM

Compared with HCC-366, NCI-H1666 is higher in relative viability: 1.03 for the first, 1.05 for the second.

Going from NCI-H647 to LK-2, the relative viability falls from 1.1 to 1.09.

Compared with NCI-H2087, NCI-H358 is lower in relative viability: 1.23 for the first, 1.03 for the second.

Going from NCI-H2170 to H3255, the relative viability falls from 1.06 to 0.989.

Going from COR-L23 to COR-L 105, the relative viability falls from 1.16 to 1.12.

First: IA-LM
Second: LOU-NH91
The relative viability of the first is higher: 0.957 for the first, 0.928 for the second.

First: NCI-H1793
Second: NCI-H2405
The relative viability of the first is higher: 1.13 for the first, 1.06 for the second.

Going from HOP-62 to HCC-44, the relative viability falls from 0.97 to 0.94.

Compared with A549, SK-MES-1 is lower in relative viability: 1.1 for the first, 1.06 for the second.

Going from LU99A to BEN, the relative viability falls from 1.22 to 1.03.

Going from HARA to HCC-78, the relative viability falls from 1.1 to 1.06.

First: NCI-H322M
Second: LCLC-97TM1
The relative viability of the first is lower: 0.939 for the first, 0.964 for the second.

Compared with NCI-H2009, A-427 is higher in relative viability: 1.11 for the first, 1.14 for the second.

Compared with NCI-H460, NCI-H727 is lower in relative viability: 1.09 for the first, 0.964 for the second.

Compared with NCI-H1734, NCI-H520 is lower in relative viability: 1.16 for the first, 1.12 for the second.

NCI-H2347 and SW 1573 are the same in relative viability: 1.11 for the first, 1.11 for the second.

First: NCI-H1395
Second: 201T
The relative viability of the first is lower: 1.02 for the first, 1.06 for the second.

Work on NCI-H1915 yielded a relative viability of 1.05.

Same assay, conditions: 2.53 µM

Going from HCC-366 to NCI-H1666, the relative viability rises from 0.432 to 1.03.

Going from NCI-H647 to LK-2, the relative viability rises from 0.538 to 0.682.

Going from NCI-H2087 to NCI-H358, the relative viability falls from 0.428 to 0.339.

First: NCI-H2170
Second: H3255
The relative viability of the first is lower: 0.729 for the first, 0.859 for the second.

Compared with COR-L23, COR-L 105 is lower in relative viability: 0.901 for the first, 0.666 for the second.

First: IA-LM
Second: LOU-NH91
The relative viability of the first is higher: 1.05 for the first, 0.512 for the second.

Going from NCI-H1793 to NCI-H2405, the relative viability rises from 0.159 to 0.746.

Compared with HOP-62, HCC-44 is lower in relative viability: 1.04 for the first, 0.928 for the second.

Compared with A549, SK-MES-1 is lower in relative viability: 0.857 for the first, 0.648 for the second.

First: LU99A
Second: BEN
The relative viability of the first is lower: 0.796 for the first, 1.05 for the second.

Going from HARA to HCC-78, the relative viability rises from 0.676 to 0.708.

First: NCI-H322M
Second: LCLC-97TM1
The relative viability of the first is lower: 0.542 for the first, 0.804 for the second.

First: NCI-H2009
Second: A-427
The relative viability of the first is higher: 0.853 for the first, 0.708 for the second.

Going from NCI-H460 to NCI-H727, the relative viability falls from 0.966 to 0.806.

Going from NCI-H1734 to NCI-H520, the relative viability rises from 0.269 to 0.559.

Going from NCI-H2347 to SW 1573, the relative viability falls from 0.935 to 0.803.

First: NCI-H1395
Second: 201T
The relative viability of the first is lower: 0.713 for the first, 0.844 for the second.

With NCI-H1915 the relative viability was 0.667.

Same assay, conditions: 8 µM

First: HCC-366
Second: NCI-H1666
The relative viability of the first is lower: 0.565 for the first, 0.876 for the second.

Going from NCI-H647 to LK-2, the relative viability rises from 0.233 to 0.431.

Compared with NCI-H2087, NCI-H358 is lower in relative viability: 0.851 for the first, 0.246 for the second.

Compared with NCI-H2170, H3255 is lower in relative viability: 0.892 for the first, 0.873 for the second.

Going from COR-L23 to COR-L 105, the relative viability falls from 0.592 to 0.418.

Compared with IA-LM, LOU-NH91 is lower in relative viability: 0.913 for the first, 0.576 for the second.

Compared with NCI-H1793, NCI-H2405 is higher in relative viability: 0.279 for the first, 0.382 for the second.

Going from HOP-62 to HCC-44, the relative viability falls from 1.09 to 0.711.

Compared with A549, SK-MES-1 is lower in relative viability: 0.518 for the first, 0.322 for the second.
